In ChEMBL document CHEMBL1144698, “New approach to measure protein binding based on a parallel artificial membrane assay and human serum albumin” (J Med Chem, 2008):
pKd: −log10 of the molar value.

Columns and labels:
Type in all cases: ADME
[1] = molecular target: T1, Albumin (Homo sapiens, UniProt P02768); test: Binding affinity to human serum albumin by PAMPA method
[2] = molecular target: T1, Albumin; test: Binding affinity to 50 uM human serum albumin at 10 uM by PAMPA method
[3] = molecular target: T1, Albumin; test: Binding affinity to 600 uM human serum albumin at 10 uM by PAMPA method
[4] = molecular target: T1, Albumin; test: Binding affinity to 100 uM human serum albumin at 10 uM by PAMPA method
[5] = molecular target: T1, Albumin; test: Binding affinity to 300 uM human serum albumin at 10 uM by PAMPA method
[6] = molecular target: T1, Albumin; test: Binding affinity to 100 uM human serum albumin at 50 uM by PAMPA method

T1 sequence (P02768 whole entry): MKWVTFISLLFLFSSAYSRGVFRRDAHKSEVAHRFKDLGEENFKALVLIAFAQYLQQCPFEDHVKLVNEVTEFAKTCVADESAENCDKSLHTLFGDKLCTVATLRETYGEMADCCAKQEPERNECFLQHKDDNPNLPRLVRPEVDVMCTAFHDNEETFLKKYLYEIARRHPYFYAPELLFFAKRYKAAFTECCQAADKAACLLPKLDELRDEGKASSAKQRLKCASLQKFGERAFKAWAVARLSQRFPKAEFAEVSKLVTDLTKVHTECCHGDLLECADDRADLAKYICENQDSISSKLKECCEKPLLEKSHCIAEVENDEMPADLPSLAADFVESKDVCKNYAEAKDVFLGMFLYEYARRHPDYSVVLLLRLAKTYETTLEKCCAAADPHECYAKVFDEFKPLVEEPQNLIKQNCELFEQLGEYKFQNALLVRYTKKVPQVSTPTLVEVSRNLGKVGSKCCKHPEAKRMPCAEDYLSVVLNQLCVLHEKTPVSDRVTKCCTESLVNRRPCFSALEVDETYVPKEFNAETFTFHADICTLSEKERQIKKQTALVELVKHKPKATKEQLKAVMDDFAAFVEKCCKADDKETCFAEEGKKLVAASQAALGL

Compound `CNCCCN1c2ccccc2CCc2ccccc21` [DESIPRAMINE] has a pKd [1] of 3.07.

In the case of `CC(C)NCC(O)COc1cccc2ccccc12` (configuration not stated) [PROPRANOLOL], the pKd [2] was 3.45, the pKd [1] was 3.36 and the pKd [3] was 3.20. It also gave a pKd [4] of 3.18, a pKd [5] of 3.22 and a pKd [6] of 3.36.
